This note sets out measurements from PubChem BioAssay (NCI).

Among the test systems are OVCAR-8 ovarian; OVCAR-5 ovarian; SK-MEL-5 melanoma; HCT-116 colon; TK-10 renal; UACC-257 melanoma; SNB-19 CNS; HCC-2998 colon; NCI-H226 lung; HS 578T breast.
Holding throughout (experiment): growth of human tumour cells (NCI), 48 h

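These data come from cells grown in 96-well plates and exposed to compound for 48 hours at five concentrations. GI50 is the concentration that inhibits growth by half. TGI denotes the concentration required for complete inhibition of growth.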

As for `COc1cc(C2C(C(=O)O)=C(COC(C)=O)Oc3cc4c(cc32)OCO4)cc(OC)c1OC` (stereo unspecified), the TGI with OVCAR-8 ovarian, in the assay on OVCAR-5 ovarian, in the assay with SK-MEL-5 melanoma, with HCT-116 colon, in the assay with TK-10 renal and in the assay on UACC-257 melanoma was above 100 µM each time. This compound showed a TGI with SNB-19 CNS above 100 µM.
With `O=C1/C(=C/c2ccc(Cl)cc2)N=C(c2ccccc2)N1CCc1cccs1`, the GI50 is 43.8 µM with OVCAR-8 ovarian; 61.2 µM with OVCAR-5 ovarian; 15.6 µM with SK-MEL-5 melanoma; 31.8 µM in the assay with HCC-2998 colon; 21.2 µM in the assay with NCI-H226 lung; 6.65 µM in the assay on HCT-116 colon. For the same compound, the GI50 in the assay on HS 578T breast was 20.3 µM; in the assay on TK-10 renal, 27.9 µM; in the assay on UACC-257 melanoma, 36 µM; in the assay on SNB-19 CNS, 29.4 µM. Further, the TGI in the assay with OVCAR-8 ovarian is above 100 µM; with OVCAR-5 ovarian, above 100 µM; in the assay on SK-MEL-5 melanoma, 33.2 µM; in the assay on HCC-2998 colon it was above 100 µM; in the assay with NCI-H226 lung it was above 100 µM; in the assay on HCT-116 colon it was above 100 µM. In addition, the TGI in the assay with HS 578T breast, with TK-10 renal, in the assay on UACC-257 melanoma and in the assay on SNB-19 CNS was above 100 µM each time.
In the case of `N=C(N)SCc1ccc(Cl)cc1Cl` (tested in a mixture with another compound), the TGI was above 100 µM in the assay on OVCAR-8 ovarian; 35.7 µM in the assay on OVCAR-5 ovarian; 29.2 µM in the assay with SK-MEL-5 melanoma; 21.5 µM with HCC-2998 colon; 40.9 µM in the assay on NCI-H226 lung; 25 µM in the assay with HCT-116 colon. In addition, the TGI in the assay with HS 578T breast was found to be 45.2 µM; in the assay with TK-10 renal, 18.8 µM; in the assay with UACC-257 melanoma, 20.7 µM; in the assay on SNB-19 CNS it was 47.6 µM.
Regarding `CCCCCCOP(=O)(OCCCCCC)C(NC(=O)OCC)(C(F)(F)F)C(F)(F)F`, the TGI is above 100 µM with OVCAR-8 ovarian; above 100 µM in the assay on OVCAR-5 ovarian; 44.1 µM in the assay with SK-MEL-5 melanoma; 66.2 µM in the assay on NCI-H226 lung; 90.2 µM in the assay with HCT-116 colon; above 100 µM with HS 578T breast. The TGI in the assay with TK-10 renal and in the assay on SNB-19 CNS was above 100 µM each time.
With `CO/N=C(\C)COc1ccc2c(=O)c(-c3ccccc3)coc2c1`, the GI50 with OVCAR-8 ovarian is 21.4 µM; with OVCAR-5 ovarian it was 3.23 µM; with SK-MEL-5 melanoma, above 100 µM; in the assay on NCI-H226 lung, 36.4 µM; in the assay on HCT-116 colon, 14.8 µM; in the assay on HS 578T breast, 63.1 µM. Further, the GI50 is 20 µM with TK-10 renal, 25.6 µM in the assay on UACC-257 melanoma and 17.7 µM in the assay with SNB-19 CNS. The TGI is 46.8 µM in the assay with OVCAR-8 ovarian; 43.8 µM in the assay with OVCAR-5 ovarian; above 100 µM in the assay with SK-MEL-5 melanoma; above 100 µM with NCI-H226 lung; 30 µM with HCT-116 colon; above 100 µM in the assay with HS 578T breast. For the same compound, the TGI was 42.9 µM in the assay on TK-10 renal, 97.3 µM with UACC-257 melanoma and above 100 µM with SNB-19 CNS.
Consider `CN(C)c1ccc(C(Cc2ccc3ccccc3n2)Cc2ccc3ccccc3n2)cc1`, for which the GI50 is 4.4 µM with NCI-H226 lung, 2.64 µM in the assay on HCT-116 colon, 6.22 µM in the assay on HS 578T breast and 4.93 µM with TK-10 renal. The TGI in the assay with NCI-H226 lung, in the assay on HCT-116 colon, with HS 578T breast and with TK-10 renal was above 100 µM each time.
Turning to `CCOC(=O)C(O)(NC(=O)c1ccccc1F)C(F)(F)F` (stereo unspecified), the TGI in the assay with OVCAR-8 ovarian, in the assay on OVCAR-5 ovarian, in the assay on SK-MEL-5 melanoma, in the assay with HCC-2998 colon, in the assay on NCI-H226 lung and with HCT-116 colon was above 100 µM throughout. Besides, the TGI in the assay on HS 578T breast, with TK-10 renal, with UACC-257 melanoma and in the assay with SNB-19 CNS was above 100 µM in each case.
Take `CC(C)C1=CCC2C(=C1)CCC1C(C)(C(=O)O)CCCC21C` (stereo unspecified) (tested in a mixture with another compound): the TGI in the assay on OVCAR-8 ovarian, with OVCAR-5 ovarian, in the assay with SK-MEL-5 melanoma, in the assay on HCC-2998 colon, in the assay on NCI-H226 lung and in the assay on HCT-116 colon was above 100 µM throughout. Further, the TGI with HS 578T breast, with TK-10 renal and with UACC-257 melanoma was above 100 µM in each case.
Turning to `O=C(O)c1cn2c3c(cc(N4CCN(CCO)CC4)cc3c1=O)SCC2`, the TGI with OVCAR-8 ovarian is above 100 µM; in the assay on OVCAR-5 ovarian, above 100 µM; in the assay on SK-MEL-5 melanoma it was above 100 µM; with HCC-2998 colon, 93.3 µM; with NCI-H226 lung it was above 100 µM; in the assay on HCT-116 colon it was above 100 µM. Moreover, the TGI in the assay on UACC-257 melanoma and in the assay on SNB-19 CNS was above 100 µM throughout.
For the compound `CNC(=O)N(C)COC`, the TGI in the assay on OVCAR-8 ovarian, in the assay with OVCAR-5 ovarian, in the assay on HCC-2998 colon, in the assay on NCI-H226 lung, with HCT-116 colon and with UACC-257 melanoma was above 100 µM each time. The same compound yielded a TGI with SNB-19 CNS above 100 µM.
For the compound `Cc1c2cnccc2c(C)c2c1c1ccccc1n2CCCCCCNCc1ccccc1`, the TGI stood at 3.31 µM in the assay on OVCAR-5 ovarian; 4.29 µM in the assay on SK-MEL-5 melanoma; 4.86 µM in the assay with HCC-2998 colon; 1.92 µM in the assay with HCT-116 colon; 3.61 µM with UACC-257 melanoma; 3.75 µM in the assay on SNB-19 CNS.
